# Target: T1, amyloid-β (Aβ40) (Homo sapiens, UniProt P05067)
# T1 construct: gene APP; Aβ40
# Experiment: ITC and 2D 1H-15N SOFAST-HMQC NMR (below and above the CAC)
# Assay type: binding
# T1 sequence (P05067 672-711 limits assumed): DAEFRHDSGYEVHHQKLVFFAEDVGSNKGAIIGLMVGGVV
row,SMILES,ITC and 2D 1H-15N SOFAST-HMQC NMR (below and above the CAC)
1,"CCCCCCCCCCCCC/C=C/[C@H](OC(C)=O)[C@@H](N)CO [3-O-Ac-SP, (2S,3S,E)-2-amino-1-hydroxyoctadec-4-en-3-yl acetate]",These observations indicate weak and nonspecific interactions of both N-Ac-SP and 3-O-Ac-SP towards Aβ.
2,"CCCCCCCCCCCCC/C=C/[C@@H](O)[C@H](CO)NC(C)=O [N-Ac-SP, (2S,3R,4E)-2-(acetylamino)-4-octadecene-1,3-diol]",Interactions between the two acetylsphingosines and Aβ exhibited spontaneous complexation showing an endothermic process
3,"CCCCCCCCCCCCC/C=C/[C@@H](O)[C@@H](N)CO [SP, (2S,3R)-2-aminooctadec-4-trans-ene-1,3-diol]","For the association of SP with Aβ, an endothermic isotherm was recorded with negative Gibbs free energy change"

# — article PMC8179336, “Impact of sphingosine and acetylsphingosines on the aggregation and toxicity of metal-free and metal-treated amyloid-β” (Chemical Science, 2020)
